Consider 8 compounds from patent US20130145496A1, “FLAVIN ENZYME HAVING FLAVONOL 8-HYDROXYLASE ACTIVITY AND USE THEREOF” (SUNTORY HOLDINGS LIMITED, priority 2010, published 2013).

One assay concerns flavonol 8-hydroxylase (MFB088 crude enzyme). Put plainly: Hydroxylase activity of MFB088 crude enzyme on flavonoid substrates (UPLC-TOF MS, ion trap MS/MS). Format: biochemical, Lotus japonicus. Conditions: 0.048 nmol substrate, FAD, NADPH, pH 7.0, 30° C., 15 minutes; product detected by UPLC-TOF MS / ion trap MS/MS; not detected in negative control. As to the method: The yeast cells were centrifuged and recovered, and then lysed using glass beads. The lysate was centrifuged at 8000×g for 10 minutes. The supernatant was recovered and further centrifuged at 15000×g for 10 minutes to give the crude enzyme fraction of the protein encoded by MFB088 (hereinafter referred to as the MFB088 crude enzyme).
MFB088 crude enzyme solution, 2 μl (containing 2.5 μg of proteins); 0.1 M KH2PO4/K2HPO4 solution (containing 0.4% ascorbic acid: pH 7.0), 88 μl; 0.048 nmol eriodictyol/5 […] of H2O; 0.001 nmol FAD and 0.48 nmol NADPH/5 μl of H2O.
NADPH was added to start the reaction. After the reaction proceeded at 30° C. for 15 minutes, 10 μl of glacial acetic acid was added to stop the reaction. An […] was further added to extract the phenol compound twice (the added […]: 70 μl and 50 μl). The organic layer was recovered and used as a sample (hereinafter referred to as “MFB088 crude enzyme reaction product”). The components were analyzed by UPLC-TOF MS and ion trap MS/MS.
For analysis of the MFB088 crude enzyme reaction product, Waters Acquity UPLC™ system (Waters Corporation) equipped with time-of-flight mass spectrometer LCT Premier (Waters Corporation, Massachusetts, USA) was used. The analysis was performed using an ACQUITY UPLC™ BEH C18 column (particle diameter of 1.7 μm, column size of 2.1 mm I.D.×100 mm, Waters Corporation) under the conditions of flow rate of 0.3 ml/min and column temperature at 40° C. Using solvent A (0.1% formic acid-acetonitrile) and solvent B (0.1% formic acid aqueous solution), the reaction product was eluted by linear gradient from 70% B in 0 minute to 70% A in 20 minutes. The reaction product was detected by the time-of-flight mass spectrometer in the cation detection mode set forth below: capillary voltage of 2500 V, sample cone of 100 V, desolvation temperature at 250° C., source temperature at 120° C., and nitrogen gas flow of 6001/hour.
The components of the MFB088 crude enzyme reaction product was analyzed by ion trap MS/MS. High performance liquid chromatography (HPLC) system Agilent 1200 series (Agilent Technologies, California, USA) equipped with ion trap mass spectrometer LTQ XL (Thermo Fisher Scientific, Massachusetts, USA) was used for the MS/MS analysis. HPLC was performed using a TSKgel ODS-80™ column (particle diameter of 5 μm, column size of 4.6 mm I.D.×150 mm, TOSOH, Japan) under the conditions of flow rate of 0.5 ml/min and column temperature at 40° C. Using solvent A (0.1% formic acid-acetonitrile) and solvent B (0.1% formic acid aqueous solution), the reaction product was eluted by linear gradient from 70% B in 0 minute to 85% A in 30 minutes. The reaction product was ionized by electrospray ionization method and cations were detected under the following conditions: spray voltage of 4.0 kV, capillary temperature at 300° C., nitrogen sheath of 40 units, and auxiliary gas of 15 units. In the MS/MS analysis of the reaction product [M+H]+, collision-induced dissociation (CID) was performed under the conditions below to detect the fragment peak: normalized collision energy of 35, activation Q of 0.25 and activation time for 30 ms.
MFB088 crude enzyme solution, 2 μl (containing 2.5 μg of proteins); 0.1 M KH2PO4/K2HPO4 solution (containing 0.4% ascorbic acid: pH 7.0), 88 μl; 0.048 nmoleriodictyol/5 μl of H2O; 0.001 nmol FAD and 0.48 nmol NADPH/5 μl of H2O.
MFB088 crude enzyme solution, 2 μl (containing 2.5 μg of protein); 0.1 M KH2PO4/K2HPO4 solution (containing 0.4% ascorbic acid: pH 7.0), 88 μl; 0.048 nmol luteolin/5 μl of H2O; 0.001 nmol FAD and 0.48 nmol NADPH/5 μl of H2O.
The reactivity requiring kaempferol and apigenin as substrates was analyzed. The reaction product was recovered in a manner similar to EXAMPLES described above and the components were analyzed by UPLC-TOF MS.
On to `O=c1c(O)c(-c2ccc(O)c(O)c2)oc2cc(O)cc(O)c12` [quercetin], for which the “hydroxylation of substrate by the MFB088 crude enzyme” value (“hydroxylation of substrate” below) was “substituted with hydroxyl group at position 8 and converted into gossypetin”.

Turning to `O=c1c(O)c(-c2ccc(O)cc2)oc2cc(O)cc(O)c12` [kaempferol], the “hydroxylation of substrate” value is reported as “hydroxyl group is attached to kaempferol at position 8”.

For the compound `O=c1cc(-c2ccc(O)cc2)oc2cc(O)cc(O)c12` [apigenin], the “hydroxylation of substrate” value was “hydroxyl group is attached to apigenin”.

With `O=C1C[C@@H](c2ccc(O)cc2)Oc2cc(O)cc(O)c21` [naringenin], the “hydroxylation of substrate” value was “two hydroxyl groups were attached”.

With `O=c1cc(-c2ccc(O)c(O)c2)oc2cc(O)cc(O)c12` [luteolin], the “hydroxylation of substrate” value is on record as “hydroxyl group is attached to luteolin”.

`O=C1c2c(O)cc(O)cc2O[C@H](c2ccc(O)c(O)c2)[C@H]1O` [dihydroquercetin]: the “hydroxylation of substrate” value is listed as “two hydroxyl groups were attached”.

In the case of `O=C1C[C@@H](c2ccc(O)c(O)c2)Oc2cc(O)cc(O)c21` [eriodictyol], the “hydroxylation of substrate” value is “hydroxyl-substituted”.

The next assay deals with nuclear factor-κB (NF-κB).
Experiment: not given
Conditions: leading to cell apoptosis potentiation; cited from earlier work.
`O=c1c(O)c(-c2ccc(O)c(O)c2)oc2c(O[C@@H]3O[C@H](CO)[C@@H](O)[C@H](O)[C@H]3O)c(O)cc(O)c12` [gossypin, gossypetin-8-glucoside]: the “effect on activation of NF-κB” value is “inhibits the activation of nuclear factor-κB (NF-κB)”.

The next assay concerns low density lipoprotein receptor (LDLR).
Experiment: not given
Conditions: through activation of extracellular signal-regulated kinase (ERK); cited from earlier work.
On to `O=c1c(O)c(-c2ccc(O)c(O)c2)oc2c(O[C@@H]3O[C@H](CO)[C@@H](O)[C@H](O)[C@H]3O)c(O)cc(O)c12` [gossypin, gossypetin-8-glucoside], for which the “effect on LDLR” value is recorded as “upregulates low density lipoprotein receptor (LDLR)”.
